For the experiment, the target named is T1, human CaSR (Homo sapiens, UniProt P41180).
T1 sequence (P41180 20-1078): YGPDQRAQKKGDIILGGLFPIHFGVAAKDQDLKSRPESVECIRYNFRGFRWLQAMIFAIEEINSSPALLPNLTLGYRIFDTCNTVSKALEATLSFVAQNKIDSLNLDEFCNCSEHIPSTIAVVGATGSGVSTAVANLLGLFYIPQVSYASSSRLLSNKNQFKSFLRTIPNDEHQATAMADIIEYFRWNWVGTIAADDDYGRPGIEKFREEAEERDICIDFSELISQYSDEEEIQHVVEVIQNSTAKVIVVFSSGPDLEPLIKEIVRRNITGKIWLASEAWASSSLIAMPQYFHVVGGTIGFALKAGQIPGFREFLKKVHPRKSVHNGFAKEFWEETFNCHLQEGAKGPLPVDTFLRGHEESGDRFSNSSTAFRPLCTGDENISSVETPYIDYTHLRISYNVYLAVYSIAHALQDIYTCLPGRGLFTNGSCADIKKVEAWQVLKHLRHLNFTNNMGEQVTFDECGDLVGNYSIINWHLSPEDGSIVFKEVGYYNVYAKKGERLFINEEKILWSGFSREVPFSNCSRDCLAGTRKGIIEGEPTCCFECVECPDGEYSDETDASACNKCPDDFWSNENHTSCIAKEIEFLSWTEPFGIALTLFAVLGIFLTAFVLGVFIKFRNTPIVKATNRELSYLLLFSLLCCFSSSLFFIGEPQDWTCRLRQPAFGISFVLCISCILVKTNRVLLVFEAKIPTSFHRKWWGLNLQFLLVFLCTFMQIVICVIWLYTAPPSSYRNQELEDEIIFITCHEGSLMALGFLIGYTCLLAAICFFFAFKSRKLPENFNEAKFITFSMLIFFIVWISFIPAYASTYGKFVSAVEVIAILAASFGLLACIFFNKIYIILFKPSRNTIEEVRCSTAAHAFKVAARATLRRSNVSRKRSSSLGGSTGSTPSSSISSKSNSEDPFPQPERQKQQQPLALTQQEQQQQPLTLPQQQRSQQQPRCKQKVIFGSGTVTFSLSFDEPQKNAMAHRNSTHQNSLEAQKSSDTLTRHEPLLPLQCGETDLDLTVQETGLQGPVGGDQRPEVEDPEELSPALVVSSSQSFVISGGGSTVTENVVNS
The experiment is described as follows: CaSR FLIPR assay (calcilytic activity). Format: cell-based. Also noted: expressed in transfected cells. Particulars: HEK293 cells stably expressing human recombinant CaSR; 1 mM CaCl2 agonist; Tables 1-24; read-out: FLIPR ASSAY IC50. The protocol:
Procedures for CaSR FLIPR Assay
Calcilytic activity of the compound is measured in HEK293 cells stably expressing human recombinant CaSR (HEK-CaSR) using a FLIPR^TETRA device (Molecular Devices, Sunnyvale, Calif.) according to the manufacturer's directions. […] On the day of the assay, one vial of FLIPR Calcium 4 Assay Kit reagent Component A was equilibrated to room temperature. The content of the Component A vial was diluted by adding 10 ml dilution buffer (2×loading dye). The sample was mixed by vortexing (1-2 minutes) until the contents of the vial dissolved. The Component A vial mixture was diluted with 10 ml dilution buffer. Media was aspirated from the cells and 80 μl of loading buffer was added to each well. Plates were incubated for 1 hour at 37° C. and then placed at room temperature for 10 minutes. A two-stage method of generating 10-point serial dilutions was used. Compound was serially diluted in 100% DMSO (10 point, 3-fold dilution of each compound from 2 mM in 100% DMSO). 3 μl of serially diluted compound was transferred into a second assay microplate that contained 97 μl of TETRA dilution buffer (20 mM HEPES pH7.4, 1×HBSS without Ca and Mg, 0.4 mM CaCl2, 0.4 mM MgSO4, 0.5 mM MgCl2) to create the intermediate dilution plate. After reading the base line, the compounds in 0.5% DMSO in dilution buffer were added to their respective wells as 20 μl aliquots at 6×the final drug concentration. The fluorescence signals were then read. Subsequently, 20 μl of 3.6 mM of CaCl2 agonist (1 mM final concentration) was added to each well. For background, 20 μl of TETRA dilution buffer was added instead. The protocol consisted of a pre-addition read of 10 frames (10×1 frame/sec), a post 1st addition read of 100 frames (60×1 frame/sec, 40×1 frame/3 sec), pause 3 min, a post 2nd addition read of 100 frames (60×1 frame/sec, 40×1 frame/3 sec) on a FLIPR^TETRA Plate Reader.

Some results are limits rather than exact numbers.

By IC50 is commonly meant the concentration that gives 50% inhibition. As for `CSc1ccc(CC(C)(C)NC[C@@H](O)CO[C@H](C)c2cccc3c2[C@@H]2[C@H](O3)[C@H]2C(=O)O)cc1F` [Example 5-14], the concentration for half-maximal inhibition (IC50) amounted to 27 nM.

On to `Cc1ccc([C@@H](C)OC[C@H](O)CNC(C)(C)Cc2ccc3ncccc3c2)c2c1O[C@H]1C2[C@@H]1C(=O)O` (stereo partly drawn) [Example 8-25], for which the IC50 was 460 nM.

For the molecule `CCOC(=O)[C@@H]1[C@H]2Oc3cccc([C@@H](C)OC[C@H](O)CNC(C)(C)Cc4ccc5ccccc5c4)c3[C@H]21` [Example 5-20], the IC50 was found to be 130 nM.

On to `Cc1ccc([C@@H](C)OC[C@H](O)CNC(C)(C)Cc2ccc3ccccc3c2)c2c1O[C@H]1[C@H](C(=O)O)[C@@H]21` [Example 9-1], for which the IC50 came out at 22 nM.

Consider `Cc1ccc(CC(C)(C)NC[C@@H](O)CO[C@H](C)c2cccc3c2[C@@H]2[C@H](O3)[C@H]2C(=O)O)cc1C` [Example 5-5], for which the concentration for half-maximal inhibition (IC50) is 26 nM.

In the case of `Cc1ccc(CC(C)(C)NC[C@@H](O)CO[C@H](C)c2ccc(C)c3c2C2[C@H](O3)[C@H]2C(=O)O)cc1C` (stereo partly drawn) [Example 8-5], the half-inhibitory concentration (IC50) is 18 nM.

As to `Cc1ccc([C@@H](C)OC[C@H](O)CN2CCCC2(C)Cc2ccccc2)c2c1O[C@@H]1[C@@H](C(=O)O)[C@H]21` (stereo partly drawn) [Example 8-18], the IC50 came out at 1330 nM.

On to `Cc1ccc([C@@H](C)OC[C@H](O)CNC2(Cc3ccc4ccccc4c3)CCC2)c2c1O[C@H]1[C@H](C(=O)O)[C@@H]21` [Example 9-8], for which the IC50 was more than 10000 nM.

For `C[C@@H](OC[C@H](O)CNC(C)(C)Cc1ccc2c(c1)CCC2)c1cccc2c1[C@@H]1[C@H](C2)[C@H]1C(=O)O` [Example 13-3], the IC50 was 88 nM.

On to `C[C@@H](OC[C@H](O)CNC(C)(C)Cc1ccc2ccccc2c1)c1ccc(Cl)c2c1C1C(O2)C1C(=O)O` (stereo partly drawn) [Example 18-1], for which the IC50 was 40 nM.

As for `C[C@@H](OC[C@H](O)CNC(C)(C)Cc1ccc2sccc2c1)c1cccc2c1[C@@H]1[C@H](C2)[C@H]1C(=O)O` [Example 13-4], the IC50 worked out at 36 nM.

`Cc1ccc([C@@H](C)OC[C@H](O)CNC(C)(C)Cc2ccc3c(c2)CCC3)c2c1O[C@H]1[C@H](C(=O)O)[C@@H]21` [Example 9-6]: the 50% inhibitory concentration (IC50) was found to be 53 nM.

As for `C[C@@H](OC[C@H](O)CNC(C)(C)Cc1ccc2ccccc2c1)c1cc(Cl)cc2c1O[C@@H]1[C@@H](C(=O)O)[C@H]21` [Example 20-1], the IC50 stood at 20 nM.

On to `COc1ccc(CC(C)(C)NC[C@@H](O)CO[C@H](C)c2c(Cl)cc(C)c3c2[C@@H]2[C@H](O3)[C@H]2C(=O)O)c(F)c1` [Example 16-5], for which the IC50 amounted to 24 nM.

With `Cc1ccc([C@@H](C)OC[C@H](O)CNC(C)(C)Cc2ccc3c(c2)CCS3(=O)=O)c2c1O[C@@H]1[C@@H](C(=O)O)[C@H]21` [Example 8-27], the IC50 was more than 10000 nM.

Turning to `CSc1ccc(CC(C)(C)NC[C@@H](O)CO[C@H](C)c2cccc3c2O[C@H]2[C@H](C(=O)O)[C@@H]32)cc1F` [Example 2-9], the IC50 is 830 nM.

Take `C[C@@H](OC[C@H](O)CNC(C)(C)Cc1ccc2ccccc2c1)c1cccc2c1O[C@@H]1[C@@H](C(=O)NS(=O)(=O)C3(C)CC3)[C@H]21` [Example 4-1]: the IC50 is 60 nM.

For `COc1ccc(CC(C)(C)NC[C@@H](O)CO[C@H](C)c2cccc3c2O[C@@H]2[C@@H](C(=O)O)[C@H]32)c(Cl)c1` [Example 1-19], the IC50 worked out at 170 nM.

`C[C@@H](OC[C@H](O)CNC(C)(C)Cc1ccc2c(c1)OCCO2)c1cccc2c1O[C@@H]1[C@@H](C(=O)O)[C@H]21` [Example 1-10]: the IC50 was determined as 460 nM.

With `Cc1cc(Cl)c([C@@H](C)OC[C@H](O)CNC(C)(C)Cc2ccc3ccccc3c2)c2c1O[C@@H]1[C@@H](C(=O)O)[C@H]21` [Example 16-1], the IC50 amounted to 9 nM.

As for `Cc1ccc([C@@H](C)OC[C@H](O)CNC(C)(C)Cc2ccc(Cl)c(Cl)c2)c2c1O[C@@H]1[C@@H](C(=O)O)[C@H]21` [Example 8-15], the IC50 was found to be 14 nM.

On to `Cc1ccc([C@@H](C)OC[C@H](O)CNC(C)(C)CCCc2ccccc2)c2c1O[C@@H]1[C@@H](C(=O)O)[C@H]21` [Example 8-16], for which the IC50 was 29 nM.

For the molecule `CSc1ccc(CC(C)(C)NC[C@@H](O)CO[C@H](C)c2cccc3c2[C@@H]2[C@H](O3)[C@H]2C(=O)O)cc1` [Example 5-13], the IC50 was 72 nM.

As to `C[C@@H](OC[C@H](O)CNC(C)(C)Cc1ccc2c(c1)OCCO2)c1cccc2c1[C@@H]1[C@H](O2)[C@H]1C(=O)O` [Example 5-10], the IC50 worked out at 153 nM.

As to `Cc1ccc([C@@H](C)OC[C@H](O)CN2CCCC2Cc2ccccc2)c2c1O[C@@H]1[C@@H](C(=O)O)[C@H]21` (stereo partly drawn) [Example 8-8], the IC50 amounted to 489 nM.

Consider `C[C@@H](OC[C@H](O)CNC(C)(C)Cc1ccc2ccccc2c1)c1ccc(F)c2c1C1C(O2)C1C(=O)O` (stereo partly drawn) [Example 17-1], for which the IC50 was 26 nM.

`Cc1ccc([C@@H](C)OC[C@H](O)CNC(C)(C)Cc2ccc(F)c(F)c2)c2c1O[C@@H]1[C@@H](C(=O)O)[C@H]21` [Example 8-19]: the IC50 came out at 138 nM.

On to `C[C@@H](OC[C@H](O)CNC(C)(C)Cc1ccc2ccccc2c1)c1cccc2c1[C@H]1[C@@H](O2)[C@@H]1C(=O)O` [Example 7-1], for which the IC50 stood at 80 nM.

Turning to `CSc1ccc(CC(C)(C)NC[C@@H](O)CO[C@H](C)c2cccc3c2O[C@@H]2[C@@H](C(=O)O)[C@H]32)cc1Cl` [Example 1-21], the IC50 came out at 86 nM.

In the case of `C[C@@H](OC[C@H](O)CNC(C)(C)Cc1ccc(Cl)c(Cl)c1)c1cccc2c1[C@@H]1[C@H](O2)[C@H]1C(=O)O` [Example 5-12], the IC50 turned out to be 39 nM.

On to `C[C@@H](OC[C@H](O)CNC(C)(C)Cc1ccc(Cl)cc1F)c1cccc2c1O[C@H]1[C@H](C(=O)O)[C@@H]21` [Example 2-6], for which the half-maximal inhibitory concentration (IC50) was determined as 730 nM.

As for `C[C@@H](OC[C@H](O)CNC(C)(C)Cc1ccc2ccccc2c1)c1cccc2c1[C@H]1[C@@H](C2)[C@@H]1C(=O)O` [Example 13-6], the IC50 is 4900 nM.

For the molecule `C[C@@H](OC[C@H](O)CNC(C)(C)Cc1ccc([S+](C)[O-])cc1)c1cccc2c1O[C@@H]1[C@@H](C(=O)O)[C@H]21` (stereo partly drawn) [Example 1-16], the half-maximal inhibitory concentration (IC50) was more than 10000 nM.

`Cc1cc(Cl)c([C@@H](C)OC[C@H](O)CNC(C)(C)Cc2ccc3c(c2)OCCO3)c2c1O[C@@H]1[C@@H](C(=O)O)[C@H]21` [Example 16-4]: the IC50 was determined as 41 nM.

`C[C@@H](OC[C@H](O)CNC(C)(C)CC1Cc2ccccc2C1)c1cccc2c1O[C@@H]1[C@@H](C(=O)O)[C@H]21` [Example 1-3]: the half-inhibitory concentration (IC50) was determined as 40 nM.

Turning to `C[C@@H](OC[C@H](O)CNC(C)(C)CC1Cc2ccccc2C1)c1cccc2c1O[C@H]1[C@H](C(=O)O)[C@@H]21` [Example 2-3], the IC50 turned out to be 307 nM.

`C[C@@H](OC[C@H](O)CNC(C)(C)Cc1ccc2c(c1)OCO2)c1cccc2c1O[C@@H]1[C@@H](C(=O)O)[C@H]21` [Example 1-8]: the IC50 was 320 nM.

In the case of `C[C@@H](OC[C@H](O)CNC(C)(C)Cc1ccc(Cl)c(Cl)c1)c1cccc2c1O[C@@H]1[C@@H](C(=O)O)[C@H]21` [Example 1-13], the IC50 is 39 nM.

With `CSc1ccc(CC(C)(C)NC[C@@H](O)CO[C@H](C)c2cccc3c2O[C@@H]2[C@@H](C(=O)O)[C@H]32)cc1F` [Example 1-17], the IC50 was found to be 165 nM.

These data come from patent US20160311791A1, “NOVEL TRICYCLIC CALCIUM SENSING RECEPTOR ANTOGONISTS FOR THE TREATMENT OF OSTEOPOSOSIS” (MERCK SHARP & DOHME CORP., priority 2013, published 2016).
